Where two headings read alike, the source gives them in different places.
Biological target: T1, RipN (Ralstonia pseudosolanacearum, UniProt Q8XQT8)
T1 construct: gene RSp1130
Settings: Mg2+ important, NEBuffer 3, 30 min

T1 sequence (Q8XQT8 1-474): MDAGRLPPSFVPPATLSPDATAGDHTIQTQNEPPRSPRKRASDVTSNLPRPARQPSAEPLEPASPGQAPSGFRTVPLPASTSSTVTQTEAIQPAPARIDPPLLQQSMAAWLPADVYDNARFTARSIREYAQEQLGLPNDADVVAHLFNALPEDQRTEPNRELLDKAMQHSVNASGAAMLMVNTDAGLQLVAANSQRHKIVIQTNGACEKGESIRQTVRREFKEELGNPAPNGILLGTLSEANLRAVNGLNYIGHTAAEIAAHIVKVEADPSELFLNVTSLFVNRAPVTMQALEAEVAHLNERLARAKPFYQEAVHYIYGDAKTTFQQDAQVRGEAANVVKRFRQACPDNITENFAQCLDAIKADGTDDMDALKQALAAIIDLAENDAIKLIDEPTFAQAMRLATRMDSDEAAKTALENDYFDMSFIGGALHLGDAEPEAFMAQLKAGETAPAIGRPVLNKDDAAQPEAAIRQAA

Row | Compound | phosphate colorimetric assay coupled to alkaline phosphatase | phosphate colorimetric assay coupled to alkaline phosphatase (optimum pH 7.9-8.5)
1 | NC(=O)C1=CN([C@@H]2O[C@H](COP(=O)(O)OP(=O)(O)OC[C@H]3O[C@@H](n4cnc5c(N)ncnc54)[C@H](O)[C@@H]3O)[C@@H](O)[C@H]2O)C=CC1 [NADH] | with ADPr and NADH being the preferred substrates in vitro | 
2 | Nc1ncnc2c1ncn2[C@@H]1O[C@H](COP(=O)(O)OP(=O)(O)OC[C@H]2OC(O)[C@H](O)[C@@H]2O)[C@@H](O)[C@H]1O (some centres unmarked) [ADPr] |  | RipN can hydrolyse ADPr, NADH, NAD, FAD (flavin adenine dinucleotide) and Ap4A

Reference: publication PMC6637912 (Molecular Plant Pathology, 2019)
